Reference: ChEMBL document CHEMBL1201862, “PubChem BioAssay data set” (2004)
The source made the active and inactive calls.

Legend:
[1] = molecular target: T1, Eukaryotic translation initiation factor 2-alpha kinase 3 (Homo sapiens, UniProt Q9NZJ5); assay: Dose response cell-based high-throughput screening assay to measure PERK inhibition. [Related pubchem assays: 1416 ]; type: functional
[2] = molecular target: Mitochondrial peptide methionine sulfoxide reductase (Bos taurus, UniProt P54149); type: functional;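 note: absorbance read-out, biochemical high-throughput dose-response screen for MsrA inhibitors, confirmatory; recombinant bovine MsrA coupled to E. coli TrxB with NADPH and selenocystamine; potency is for inhibitors of MsrA activity on DMSO substrate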
[3] = molecular target: T1, Eukaryotic translation initiation factor 2-alpha kinase 3; assay: Counterscreen assay for PERK inhibitors: Dose response cell-based high throughput screening assay to measure inhibition of PERK at 6 hours. [Related pubchem assays: 1522, 1416 ]; type: functional
Streptococcus = assay: Luminescence Microorganism-Based Dose Response Follow up to Identify Compounds Cytotoxic to Streptococcus. [Related pubchem assays: 1677 (Project Summary), 1915, 1914, 1902 (Retest at Dose), 1900 (Counter Screen), 1662 (Primary HTS)]; type: functional, organism-based
[4] = molecular target: T2, Alkaline phosphatase, tissue-nonspecific isozyme (Homo sapiens, UniProt P05186); assay: TNAP enzyme inhibition by screening hits, dose response, selectivity assay for mouse IAP inhibitor project, biochemical, human TNAP, uHTS hits (AID 488906); type: functional
T2 sequence (P05186 whole entry): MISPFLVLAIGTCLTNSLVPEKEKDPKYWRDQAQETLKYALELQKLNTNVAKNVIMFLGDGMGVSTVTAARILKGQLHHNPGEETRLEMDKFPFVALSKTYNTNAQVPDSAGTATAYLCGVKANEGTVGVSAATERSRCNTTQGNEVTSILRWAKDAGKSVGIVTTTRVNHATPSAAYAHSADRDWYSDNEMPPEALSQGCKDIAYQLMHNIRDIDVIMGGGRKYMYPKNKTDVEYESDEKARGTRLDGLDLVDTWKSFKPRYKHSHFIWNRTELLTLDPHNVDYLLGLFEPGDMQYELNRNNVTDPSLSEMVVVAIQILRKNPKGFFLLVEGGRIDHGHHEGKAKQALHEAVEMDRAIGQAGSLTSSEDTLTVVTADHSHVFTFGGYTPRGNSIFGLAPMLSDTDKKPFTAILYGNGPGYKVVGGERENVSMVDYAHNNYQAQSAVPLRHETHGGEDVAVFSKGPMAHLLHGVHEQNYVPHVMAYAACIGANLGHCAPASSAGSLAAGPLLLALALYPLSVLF

Cysteine protease ATG4B = Cysteine protease ATG4B (Homo sapiens, UniProt Q9Y4P1); type: functional;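 note: Fluorescence-based dose-response confirmation assay measuring inhibition of ATG4B activity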
[5] = molecular target: Intestinal-type alkaline phosphatase (Mus musculus, UniProt P24822); assay: PubChem AID 488785; type: functional
[6] = molecular target: Intestinal-type alkaline phosphatase (Homo sapiens, UniProt P09923); assay: inhibition of human intestinal alkaline phosphatase – biochemical, dose response (AID 488876); type: functional
[7] = molecular target: T2, Alkaline phosphatase, tissue-nonspecific isozyme
[8] = molecular target: T3, Short transient receptor potential channel 4 (Mus musculus, UniProt Q9QUQ5); assay: block of DAMGO-driven TRPC4 calcium entry – cell-based, HEK293 TRPC4/mu-opioid, Fluo-4 calcium, dose response (AID 434942); type: functional;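 note: potency of inhibitors blocking the TRPC4 calcium response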
T3 sequence (Q9QUQ5 whole entry): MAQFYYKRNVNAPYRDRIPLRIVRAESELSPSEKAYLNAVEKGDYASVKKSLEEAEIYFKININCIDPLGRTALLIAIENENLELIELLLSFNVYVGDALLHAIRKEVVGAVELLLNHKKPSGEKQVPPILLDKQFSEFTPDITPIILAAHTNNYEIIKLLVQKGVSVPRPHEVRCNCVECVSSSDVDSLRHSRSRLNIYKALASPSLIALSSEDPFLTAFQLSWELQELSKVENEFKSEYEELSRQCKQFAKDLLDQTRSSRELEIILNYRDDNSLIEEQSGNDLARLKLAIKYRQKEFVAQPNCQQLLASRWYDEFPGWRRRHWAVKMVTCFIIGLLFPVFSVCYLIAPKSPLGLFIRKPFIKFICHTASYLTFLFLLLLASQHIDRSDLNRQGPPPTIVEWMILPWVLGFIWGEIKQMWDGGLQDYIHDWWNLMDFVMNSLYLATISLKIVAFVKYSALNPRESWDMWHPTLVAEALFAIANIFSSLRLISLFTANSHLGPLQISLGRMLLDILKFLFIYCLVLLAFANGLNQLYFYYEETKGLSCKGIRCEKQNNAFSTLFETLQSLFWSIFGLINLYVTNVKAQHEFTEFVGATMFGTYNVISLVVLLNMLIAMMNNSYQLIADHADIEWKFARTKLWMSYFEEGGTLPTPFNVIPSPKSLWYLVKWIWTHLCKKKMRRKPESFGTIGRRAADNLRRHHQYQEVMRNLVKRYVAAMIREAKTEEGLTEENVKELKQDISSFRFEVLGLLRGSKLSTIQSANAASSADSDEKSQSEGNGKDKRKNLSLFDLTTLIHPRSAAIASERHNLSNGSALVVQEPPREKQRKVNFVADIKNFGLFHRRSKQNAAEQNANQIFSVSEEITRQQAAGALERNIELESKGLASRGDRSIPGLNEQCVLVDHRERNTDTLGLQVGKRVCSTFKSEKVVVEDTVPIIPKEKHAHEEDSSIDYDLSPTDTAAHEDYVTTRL

Phospholipase A2 = Phospholipase A2 (Homo sapiens, UniProt P04054); type: functional;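 note: confirmatory dose-response counterscreen on phospholipase A2, testing hits that came from an ultra-high-throughput screen for ATG4B inhibitors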
[9] = molecular target: Mothers against decapentaplegic homolog 3 (Homo sapiens, UniProt P84022); assay: blockers of Smad3 complex formation in lysate – cell lysate, secondary confirmation, chemiluminescent ELISA, HEK293 lysate, dose response (AID 1058); type: functional
[10] = molecular target: Serine/threonine-protein phosphatase PP1-alpha catalytic subunit (Homo sapiens, UniProt P62136); assay: inhibition of protein phosphatase 1 activity – biochemical, fluorescence, dose response (AID 2403);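 note: phosphatase turnover of OMFP into fluorescent 3-O-methylfluorescein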
[11] = Luminescence Cell-Based Dose Confirmation HTS to Identify Activators of 5'UTR Stem-Loop Driven Alpha-Synuclein mRNA Translation in H4 Neuroglioblastoma Cells. [Related pubchem assays: 1829 (Project Summary), 1814 (Primary HTS)]; type: functional
[12] = molecular target: T4, Mannose-6-phosphate isomerase (Homo sapiens, UniProt P34949); assay: MPI inhibition at elevated mannose 6-phosphate – biochemical, fluorescence intensity, high mannose 6-phosphate, primary screen (AID 1220)
T4 sequence (P34949 whole entry): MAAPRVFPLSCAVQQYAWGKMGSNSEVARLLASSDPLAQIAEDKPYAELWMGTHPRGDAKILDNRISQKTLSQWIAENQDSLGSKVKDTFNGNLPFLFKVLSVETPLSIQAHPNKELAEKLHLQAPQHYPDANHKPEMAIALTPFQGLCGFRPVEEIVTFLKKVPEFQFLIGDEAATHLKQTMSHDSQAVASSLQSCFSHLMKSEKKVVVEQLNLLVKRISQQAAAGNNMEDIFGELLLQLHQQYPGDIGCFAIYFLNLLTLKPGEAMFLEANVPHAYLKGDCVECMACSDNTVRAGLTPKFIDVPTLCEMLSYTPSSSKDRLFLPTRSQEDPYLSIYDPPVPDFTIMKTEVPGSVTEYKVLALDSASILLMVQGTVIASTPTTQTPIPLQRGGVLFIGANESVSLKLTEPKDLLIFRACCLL

H4 = assay: Luminescence Cell-Based Dose Response HTS to Identify Activators of 5'UTR Stem-Loop Driven Prion Protein mRNA Translation in H4 Neuroglioblastoma Cells. [Related pubchem assays: 1829 (Project Summary), 1814 (Primary HTS)]; type: functional; details: Homo sapiens
[13] = Luminescence Cell-Based Dose Response HTS to Identify Activators of Luciferase Translation or Activity in H4 […] Cells. [Related pubchem assays: 1829 (Project Summary), 1814 (Primary HTS)]; type: functional
[14] = molecular target: Serine/threonine-protein phosphatase (Homo sapiens, UniProt Q9BPW0); assay: Counterscreen for inhibitors of PP1: fluorescence-based biochemical high throughput dose response assay to identify inhibitors of Protein Phosphatase 5 (PP5). [Related pubchem assays: 2034 (Summary (PP5 inhibitors)), 1987 (PP5 inhibitors in singlate), 2235 (PP1 inhibitors in singlate)]
[15] = molecular target: T5, Apoptotic protease-activating factor 1 (Homo sapiens, UniProt O14727); type: functional
T5 sequence (O14727 whole entry): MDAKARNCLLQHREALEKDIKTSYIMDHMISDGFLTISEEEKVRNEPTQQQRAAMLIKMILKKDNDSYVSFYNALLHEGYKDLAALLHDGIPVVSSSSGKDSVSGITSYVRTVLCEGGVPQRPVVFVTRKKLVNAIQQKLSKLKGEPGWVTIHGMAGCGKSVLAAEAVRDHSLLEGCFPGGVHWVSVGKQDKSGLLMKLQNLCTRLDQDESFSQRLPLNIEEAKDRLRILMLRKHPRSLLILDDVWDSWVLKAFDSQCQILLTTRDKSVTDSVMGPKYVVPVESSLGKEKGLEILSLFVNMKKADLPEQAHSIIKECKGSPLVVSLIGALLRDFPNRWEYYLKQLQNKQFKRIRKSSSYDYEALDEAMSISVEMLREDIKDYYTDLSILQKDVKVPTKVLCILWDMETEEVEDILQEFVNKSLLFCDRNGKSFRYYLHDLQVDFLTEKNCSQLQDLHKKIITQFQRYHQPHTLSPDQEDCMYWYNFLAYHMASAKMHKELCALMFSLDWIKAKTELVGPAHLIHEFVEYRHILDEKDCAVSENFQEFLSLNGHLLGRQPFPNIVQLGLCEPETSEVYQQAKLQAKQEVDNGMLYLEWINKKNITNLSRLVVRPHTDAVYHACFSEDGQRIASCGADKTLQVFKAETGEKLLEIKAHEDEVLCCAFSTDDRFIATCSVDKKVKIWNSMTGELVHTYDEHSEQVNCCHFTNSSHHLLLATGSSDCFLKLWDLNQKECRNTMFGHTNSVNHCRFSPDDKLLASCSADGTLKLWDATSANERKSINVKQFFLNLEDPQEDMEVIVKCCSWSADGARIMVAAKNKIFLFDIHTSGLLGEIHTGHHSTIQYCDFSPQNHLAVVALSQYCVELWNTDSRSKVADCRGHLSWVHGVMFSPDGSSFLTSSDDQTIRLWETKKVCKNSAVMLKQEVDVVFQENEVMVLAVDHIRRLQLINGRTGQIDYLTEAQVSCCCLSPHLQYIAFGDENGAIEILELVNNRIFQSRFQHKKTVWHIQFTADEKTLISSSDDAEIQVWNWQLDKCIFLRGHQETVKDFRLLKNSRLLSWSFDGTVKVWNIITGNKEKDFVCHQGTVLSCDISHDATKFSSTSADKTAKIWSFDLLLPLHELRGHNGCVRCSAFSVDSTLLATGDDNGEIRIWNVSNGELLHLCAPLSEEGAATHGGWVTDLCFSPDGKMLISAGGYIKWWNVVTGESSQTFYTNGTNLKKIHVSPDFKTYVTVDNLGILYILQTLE

[16] = molecular target: T6, Neuropeptide Y receptor type 1 (Homo sapiens, UniProt P25929); assay: Fluorescence-based dose response cell-based high-throughput screening assay for agonists of NPY-Y1. [Related pubchem assays: 1697 (Screening assay (NPY-Y1 agonists).), 1359 (Screening assay (NPY-Y2 potentiators or agonists).), 1304 (Screening assay (NPY-Y1 potentiators or agonists).), 1704 (Screening assay (CNGC inhibitors).), 1791 (Summary AID.)]; type: functional
T6 sequence (P25929 whole entry): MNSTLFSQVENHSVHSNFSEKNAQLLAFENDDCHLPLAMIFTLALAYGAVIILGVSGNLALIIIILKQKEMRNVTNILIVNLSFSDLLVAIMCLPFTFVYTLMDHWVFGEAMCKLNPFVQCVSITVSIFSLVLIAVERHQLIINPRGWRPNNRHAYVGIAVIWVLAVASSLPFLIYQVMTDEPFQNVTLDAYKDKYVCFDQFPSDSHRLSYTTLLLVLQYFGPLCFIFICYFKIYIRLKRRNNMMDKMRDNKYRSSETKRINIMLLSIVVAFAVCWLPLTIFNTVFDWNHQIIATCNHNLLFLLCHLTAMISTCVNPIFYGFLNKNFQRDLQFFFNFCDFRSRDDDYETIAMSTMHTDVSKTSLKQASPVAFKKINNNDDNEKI

[17] = molecular target: T7, Neuropeptide Y receptor type 2 (Homo sapiens, UniProt P49146); assay: Fluorescence-based counterscreen for agonists of NPY-Y1: cell-based high-throughput dose response assay for agonists of NPY-Y2.; type: functional
T7 sequence (P49146 whole entry): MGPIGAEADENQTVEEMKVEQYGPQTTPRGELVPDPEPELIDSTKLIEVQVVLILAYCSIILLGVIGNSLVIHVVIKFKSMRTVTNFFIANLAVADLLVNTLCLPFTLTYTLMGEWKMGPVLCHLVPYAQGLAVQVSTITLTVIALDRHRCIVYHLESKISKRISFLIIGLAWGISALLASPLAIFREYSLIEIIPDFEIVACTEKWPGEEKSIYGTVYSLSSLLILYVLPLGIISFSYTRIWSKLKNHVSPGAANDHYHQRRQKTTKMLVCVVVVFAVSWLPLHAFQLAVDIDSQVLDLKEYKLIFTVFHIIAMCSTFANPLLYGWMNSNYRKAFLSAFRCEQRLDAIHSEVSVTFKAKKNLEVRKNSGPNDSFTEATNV

HEK293 = assay: Fluorescence-based counterscreen for potentiators or agonists of NPY-Y1: cell-based high-throughput dose response assay for inhibitors of cyclic nucleotide gated ion channel (CNGC) activity. In this assay, the parental HEK293 cell line transfected with a cyclic-nucleotide gated ion channel (CNGC)-based cAMP sensor is used to measure inhibition of isoproterenol-induced CNGC …; type: functional; details: Homo sapiens

T1 sequence (Q9NZJ5 whole entry): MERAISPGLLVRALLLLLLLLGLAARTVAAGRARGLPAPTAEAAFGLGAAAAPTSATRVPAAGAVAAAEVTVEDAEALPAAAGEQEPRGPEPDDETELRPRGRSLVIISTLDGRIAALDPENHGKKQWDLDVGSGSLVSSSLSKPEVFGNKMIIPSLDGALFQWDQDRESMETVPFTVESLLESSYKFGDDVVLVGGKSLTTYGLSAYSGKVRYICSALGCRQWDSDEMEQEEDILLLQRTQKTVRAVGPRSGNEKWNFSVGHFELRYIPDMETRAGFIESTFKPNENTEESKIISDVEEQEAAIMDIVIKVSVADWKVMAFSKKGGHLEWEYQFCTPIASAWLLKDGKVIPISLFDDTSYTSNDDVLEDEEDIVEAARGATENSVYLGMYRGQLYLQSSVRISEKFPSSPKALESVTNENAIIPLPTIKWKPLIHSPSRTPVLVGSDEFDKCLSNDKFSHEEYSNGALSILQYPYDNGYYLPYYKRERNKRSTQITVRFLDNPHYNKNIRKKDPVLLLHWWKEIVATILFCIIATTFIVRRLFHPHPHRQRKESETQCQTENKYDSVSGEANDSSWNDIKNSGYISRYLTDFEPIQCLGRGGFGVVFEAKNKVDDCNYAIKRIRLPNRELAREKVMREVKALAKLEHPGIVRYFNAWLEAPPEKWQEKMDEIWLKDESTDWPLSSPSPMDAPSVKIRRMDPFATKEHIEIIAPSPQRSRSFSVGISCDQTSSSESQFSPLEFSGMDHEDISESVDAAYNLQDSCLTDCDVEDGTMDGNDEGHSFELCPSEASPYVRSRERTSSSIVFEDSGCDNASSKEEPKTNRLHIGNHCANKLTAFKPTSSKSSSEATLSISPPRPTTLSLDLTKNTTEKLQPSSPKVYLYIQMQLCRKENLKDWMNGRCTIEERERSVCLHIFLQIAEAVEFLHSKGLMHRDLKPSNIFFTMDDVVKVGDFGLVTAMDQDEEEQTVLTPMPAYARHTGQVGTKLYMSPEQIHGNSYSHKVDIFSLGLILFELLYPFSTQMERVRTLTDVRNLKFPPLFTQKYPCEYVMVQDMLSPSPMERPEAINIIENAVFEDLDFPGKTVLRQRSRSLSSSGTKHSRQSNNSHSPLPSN
Chain of Phospholipase A2 (P04054 whole entry): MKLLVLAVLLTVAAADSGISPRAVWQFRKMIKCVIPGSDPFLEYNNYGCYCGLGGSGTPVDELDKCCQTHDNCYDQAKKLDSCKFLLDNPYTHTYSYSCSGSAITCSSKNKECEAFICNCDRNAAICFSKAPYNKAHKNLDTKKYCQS
Chain of Mitochondrial peptide methionine sulfoxide reductase (P54149 whole entry): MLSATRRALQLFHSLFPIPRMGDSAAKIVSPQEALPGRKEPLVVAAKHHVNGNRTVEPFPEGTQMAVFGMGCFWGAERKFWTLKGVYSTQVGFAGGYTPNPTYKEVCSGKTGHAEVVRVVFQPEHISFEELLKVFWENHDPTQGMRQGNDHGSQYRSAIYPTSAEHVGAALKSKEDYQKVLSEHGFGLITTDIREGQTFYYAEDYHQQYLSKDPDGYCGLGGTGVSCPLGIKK
Chain of Intestinal-type alkaline phosphatase (Mus musculus, UniProt P24822) (P24822 whole entry): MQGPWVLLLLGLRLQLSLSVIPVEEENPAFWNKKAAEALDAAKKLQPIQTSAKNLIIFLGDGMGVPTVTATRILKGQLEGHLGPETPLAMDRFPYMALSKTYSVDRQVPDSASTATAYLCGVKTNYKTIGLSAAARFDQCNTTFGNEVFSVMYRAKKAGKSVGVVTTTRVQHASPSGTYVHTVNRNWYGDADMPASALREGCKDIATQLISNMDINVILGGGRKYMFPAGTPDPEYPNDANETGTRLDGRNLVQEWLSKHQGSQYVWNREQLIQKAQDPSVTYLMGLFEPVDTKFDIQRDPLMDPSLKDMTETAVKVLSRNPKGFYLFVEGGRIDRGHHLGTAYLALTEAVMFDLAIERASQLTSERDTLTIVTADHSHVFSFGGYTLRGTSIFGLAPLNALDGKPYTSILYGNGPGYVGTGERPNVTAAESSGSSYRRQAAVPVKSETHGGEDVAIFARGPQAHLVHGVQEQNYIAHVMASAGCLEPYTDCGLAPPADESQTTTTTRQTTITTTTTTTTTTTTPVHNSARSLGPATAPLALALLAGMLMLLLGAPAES
Chain of Mothers against decapentaplegic homolog 3 (P84022 whole entry): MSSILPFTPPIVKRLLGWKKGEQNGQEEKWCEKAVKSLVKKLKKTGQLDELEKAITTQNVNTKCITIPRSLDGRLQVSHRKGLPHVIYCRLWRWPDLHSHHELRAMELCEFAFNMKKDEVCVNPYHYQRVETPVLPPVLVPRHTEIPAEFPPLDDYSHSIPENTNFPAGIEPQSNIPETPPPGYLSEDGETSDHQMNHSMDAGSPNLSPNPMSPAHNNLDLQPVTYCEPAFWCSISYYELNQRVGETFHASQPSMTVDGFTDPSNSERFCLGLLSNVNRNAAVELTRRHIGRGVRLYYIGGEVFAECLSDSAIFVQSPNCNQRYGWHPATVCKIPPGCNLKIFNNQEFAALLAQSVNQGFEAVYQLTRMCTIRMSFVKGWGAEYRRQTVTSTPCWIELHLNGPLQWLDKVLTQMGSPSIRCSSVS
Chain of Intestinal-type alkaline phosphatase (Homo sapiens, UniProt P09923) (P09923 whole entry): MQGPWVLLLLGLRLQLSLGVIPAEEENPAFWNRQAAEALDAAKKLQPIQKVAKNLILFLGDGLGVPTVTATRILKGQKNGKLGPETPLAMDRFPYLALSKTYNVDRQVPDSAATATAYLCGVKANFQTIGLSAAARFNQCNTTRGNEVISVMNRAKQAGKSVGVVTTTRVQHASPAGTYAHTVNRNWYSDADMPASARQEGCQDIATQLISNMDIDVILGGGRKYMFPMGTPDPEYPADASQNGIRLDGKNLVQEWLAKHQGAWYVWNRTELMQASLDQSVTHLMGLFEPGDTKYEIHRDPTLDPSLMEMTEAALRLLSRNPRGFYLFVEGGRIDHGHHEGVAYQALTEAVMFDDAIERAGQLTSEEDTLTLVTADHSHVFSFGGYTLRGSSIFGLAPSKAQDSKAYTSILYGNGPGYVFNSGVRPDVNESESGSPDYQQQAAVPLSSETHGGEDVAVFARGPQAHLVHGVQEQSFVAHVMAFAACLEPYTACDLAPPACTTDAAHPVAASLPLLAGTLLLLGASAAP
Chain of Serine/threonine-protein phosphatase (Q9BPW0 whole entry): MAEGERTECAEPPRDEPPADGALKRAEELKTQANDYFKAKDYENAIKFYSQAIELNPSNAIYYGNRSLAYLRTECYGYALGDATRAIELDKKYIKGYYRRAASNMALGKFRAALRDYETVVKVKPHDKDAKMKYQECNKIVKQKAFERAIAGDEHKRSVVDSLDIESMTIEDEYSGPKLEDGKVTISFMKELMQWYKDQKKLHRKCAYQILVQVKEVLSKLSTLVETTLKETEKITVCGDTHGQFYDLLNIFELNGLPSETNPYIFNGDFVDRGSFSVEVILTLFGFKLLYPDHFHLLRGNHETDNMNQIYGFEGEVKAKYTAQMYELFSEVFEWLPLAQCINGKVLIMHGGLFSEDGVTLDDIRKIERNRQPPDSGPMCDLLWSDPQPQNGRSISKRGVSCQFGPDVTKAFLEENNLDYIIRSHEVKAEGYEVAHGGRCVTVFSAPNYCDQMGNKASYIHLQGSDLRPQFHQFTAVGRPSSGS
Chain of Cysteine protease ATG4B (Q9Y4P1 whole entry): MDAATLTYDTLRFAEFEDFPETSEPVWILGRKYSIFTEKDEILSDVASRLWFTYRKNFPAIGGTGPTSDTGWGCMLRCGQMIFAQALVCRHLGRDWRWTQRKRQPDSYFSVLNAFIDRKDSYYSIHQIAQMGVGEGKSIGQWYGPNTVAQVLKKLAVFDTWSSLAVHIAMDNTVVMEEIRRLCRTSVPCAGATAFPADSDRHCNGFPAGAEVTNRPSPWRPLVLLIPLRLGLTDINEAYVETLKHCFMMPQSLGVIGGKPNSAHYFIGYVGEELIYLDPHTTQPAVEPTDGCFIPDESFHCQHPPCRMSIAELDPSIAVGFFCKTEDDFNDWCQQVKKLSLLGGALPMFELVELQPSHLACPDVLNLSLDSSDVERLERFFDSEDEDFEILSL
Chain of Serine/threonine-protein phosphatase PP1-alpha catalytic subunit (P62136 whole entry): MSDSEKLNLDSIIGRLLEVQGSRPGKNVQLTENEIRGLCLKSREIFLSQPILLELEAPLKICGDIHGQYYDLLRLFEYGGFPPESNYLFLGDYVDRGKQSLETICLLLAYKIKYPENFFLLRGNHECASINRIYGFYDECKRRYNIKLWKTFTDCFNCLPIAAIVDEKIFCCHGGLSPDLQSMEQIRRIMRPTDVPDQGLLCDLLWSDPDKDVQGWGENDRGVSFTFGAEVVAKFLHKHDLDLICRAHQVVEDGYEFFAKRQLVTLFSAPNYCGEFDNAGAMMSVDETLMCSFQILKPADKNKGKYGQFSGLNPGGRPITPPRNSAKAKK

## NC(=S)N/N=C/c1ccc(/C=N/NC(N)=S)cc1
[1]
  EC50: > 55.7 µM (not active)
[2]
  IC50: 155 µM (inactive)
[3]
  EC50: > 55.7 µM (not active)

## O=C(c1ccc(Cl)cc1)n1c2ccccc2c2ccccc21
Streptococcus
  EC50: > 500 µM (not active)

## Cc1ccc(CN2C3CCCC2CC(NC(=S)NCc2ccccc2)C3)cc1 (configuration not stated)
[4]
  IC50: 91.3 µM (active)
Cysteine protease ATG4B
  IC50: 15.6 µM (active)
[5]
  IC50: 5.23 µM (active)
[6]
  IC50: > 100 µM (inactive)
[7]
  EC50: 64.9 µM (not active)
[8]
  EC50: 2.66 µM (active)
Phospholipase A2
  IC50: 7.96 µM (active)

## COc1ccc(C(c2cc3c(cc2O)OCO3)N2CCOCC2)c(OC)c1OC (configuration not stated)
[9]
  IC50: 3.97 µM (not active)

## N#Cc1c(N2CCCC(O)C2)nc(N)c2c(N)nc3c(c12)CC(=O)N3C12CC3CC(CC(C3)C1)C2 (configuration not stated)
[10]
  IC50: > 67 µM (not active)
[11]
  EC50: 12.6 µM (active)
[12]
  IC50: > 50 µM (not active)
H4
  EC50: > 120 µM (not active)
[13]
  EC50: 9.64 µM (active)
[14]
  IC50: 29.5 µM (not active)
[15]
  IC50: 73 µM (active)

## CC(C)c1ccc2[nH]c(O)c(N=NC(=O)c3cccc(S(=O)(=O)Nc4cccc(Cl)c4)c3)c2c1
[16]
  EC50: > 35.4 µM (not active)
[17]
  EC50: > 35.4 µM (not active)
HEK293
  IC50: > 35.4 µM (not active)
